Source: patent US4446315A, “Adenosine 5'-triphosphate-4-carboxamide-ribofuranosylthiazole” (The United States of America as represented by the …, priority 1982, dated 1984)
Entries after “also recorded” stand apart in the source; their conditions may differ. Where two headings read alike, the source gives them in different places.

Experiments:
[1] = Antitumor activity of the metabolite administered as such; conditions: compared with progenitor TR; initial experiments
[2] = biological target: bacterial IMP dehydrogenase; experiment: Inhibition of bacterial IMP dehydrogenase; format: biochemical; conditions: chemically synthesized TAD; read-out: Ki against bacterial IMP dehydrogenase
P388 leukemic cells = experiment: Cytotoxicity against P388 leukemic cells in culture; format: cell-based; conditions: Mus musculus, read-out: Cytotoxicity Against P388 Leukemic Cells in Culture IC50 (median inhibitory concentration)

Structure (SMILES): NC(=O)c1csc([C@@H]2O[C@H](COP(=O)(O)OP(=O)(O)OC[C@H]3O[C@@H](n4cnc5c(N)ncnc54)[C@H](O)[C@@H]3O)[C@@H](O)[C@H]2O)n1 [TAD, adenosine 5'-(trihydrogen diphosphate) 5'→5'-ester with 4-carboxamide-2-β-D-ribofuranosylthiazole]
- Antitumor activity [1]: active when administered as such; also recorded: superior to that of its progenitor
- Ki [2]: 3.4 µM
- IC50 (P388 leukemic cells; P388, chemically synthesized TAD): 3.5 µM
- IC50 (P388 leukemic cells; P388, enzymatically (biologically) synthesized TAD): 2.5 µM
